Results published in patent publication US20220280594A1, “APPLICATION OF POLYPEPTIDE OR DERIVATIVE THEREOF” (CHENGDU HUITAI BIOMEDICINE CO., LTD., priority 2019, published 2022).
Ends that are not written are not given here. PEG = not defined here

Assays:
[1] = test system: human non-small cell lung cancer cells (A549); assay: scratch assay, migration of A549 cells; assay type: cell-based; conditions: A549, 10 μM, 48 hours; control group 75.31 ± 8.19
Description: (§1) In the scratch assay, the cell migration rate was negatively correlated with the inhibitory effect of the drug component on tumor cell migration ability. The cell migration inhibition experiment was described as follows: tumor cells were cultured in vitro, cells in logarithmic growth phase were collected and seeded evenly in a 24-well plate at a density of 1-2×10^5 cells/well; the cells were cultured in a cell incubator until a monolayer was formed; a scratch tool was used to make a “-” (straight) scratch on the monolayer of cells; the cells were washed 1-3 times with PBS, and a medium (with 2% fetal bovine serum) containing specific test components was added to the culture. Experimental grouping: PBS control group; polypeptide or derivative thereof treatment group (N1-N54), 10 μM. Three independent parallel wells were set up in each group, and the cells were cultured continuously in a cell incubator for 48 hours. […] At least 3 representative images for each well were taken. ImageJ software was used to count the migration distance of the cells, and the cell migration rate was calculated as: cell migration rate (%)=(width of original scratch−width of current scratch)/width of original scratch×100.
This example was a scratch assay to evaluate the inhibitory effect of the polypeptide or derivative thereof (N1-N54) on the migration ability of human non-small cell lung cancer (A549). The experimental method was as described in Example 2.

[2] = test system: human lung cancer cells (A549) subcutaneous xenograft; assay: lung cancer subcutaneous xenograft animal model, intratumoral injection; assay type: in vivo, mice (BALB/c-nu/nu); conditions: intratumoral 5 mg/kg once every other day, 20 days; for Weight of tumor (g) (mean ± SD): control 1.92 ± 0.13; for Volume of tumor (mm^3) (mean ± SD): control 1700.16 ± 305.72
Description: Experimental animals: 4-6 weeks old female immunodeficiency mice (BALB/c-nu/nu, Beijing Vital River Laboratory Animal Technology Co., Ltd.).
Subcutaneous xenograft animal model. The number of cells inoculated subcutaneously vin mice was about 2×10^6/200 μL. When the volume of the subcutaneous tumor was greater than 100 mm^3, the mice were randomly divided into groups and subjected to treatment. When the mass volume of the tumors in model control group reached 2000 mm^3 or the animal dies, the treatment ended. The animals were dissected, the tumors were taken out, and the weight and volume of the tumors were measured. During the period of the entire experiment, the mice were observed and the body weight was measured every other day.
The method used for the drug efficacy test in the animal model of the subcutaneous xenograft derived from lung cancer cells was as described in Example 5. The tumor cells were human lung cancer cells (A549), and the route of administration was intratumoral injection. There were two groups: the model control group and the polypeptide or its derivative treatment group (N1-N12). The drug dosage of the treatment group was 5 mg/kg, once every other day and the treatment time was 10 days.
The procedure of the efficacy test in this example, route and dosage of administration were the same as in Example 9. The peptides used in the experiment were N13-N32. The treatment time was 20 days.

[3] = test system: human liver cancer cells (HepG2); assay: scratch assay, migration of HepG2 cells; assay type: cell-based; conditions: HepG2, 10 μM, 48 hours; control group 71.01 ± 6.63
Description: as §1
This example was a scratch assay to evaluate the inhibitory effect of the polypeptide or derivative thereof (N1-N54) on the migration ability of human liver cancer cells (HepG2). The experimental method was as described in Example 2.

[4] = test system: human breast cancer cells (MDA-MB-453); assay: scratch assay, migration of MDA-MB-453 cells; assay type: cell-based; conditions: MDA-MB-453, 10 μM, 48 hours; control group 32.42 ± 2.04
Description: as §1
This example was a scratch assay to evaluate the inhibitory effect of the polypeptide or derivative thereof (N1-N54) on the migration ability of human breast cancer cells (MDA-MB-453). The experimental method was as described in Example 2.

[5] = test system: human breast cancer cells (MCF-7); assay: scratch assay, migration of MCF-7 cells; assay type: cell-based; conditions: MCF-7, 10 μM, 48 hours; control group 30.97 ± 1.79
Description: as §1
This example was a scratch assay to evaluate the inhibitory effect of the polypeptide or derivative thereof (N1-N54) on the migration ability of human breast cancer cells (MCF-7). The experimental method was as described in Example 2.

[6] = test system: human oral epidermoid carcinoma KB cells; assay: scratch assay, migration of KB cells; assay type: cell-based; conditions: 10 μM, 48 hours, control group 54.03 ± 4.21
Description: as §1
This example was a scratch assay to evaluate the inhibitory effect of the polypeptide or derivative thereof (N1-N54) on the migration ability of human oral epidermoid carcinoma cells (KB). The experimental method was as described in Example 2.

Substance | Migration rate (%) (mean ± SD, P) [1] | Weight of tumor (g) (mean ± SD) [2] | Volume of tumor (mm^3) (mean ± SD) [2] | Migration rate (%) (mean ± SD, P) [3] | Migration rate (%) (mean ± SD, P) [4] | Migration rate (%) (mean ± SD, P) [5] | Migration rate (%) (mean ± SD, P) [6]
N13: SEQ ID NO: 1 with deletion of positions 15-18 and positions 1-5 (LAKENVTQD) | 19.37 ± 9.40,** % | 1.09 ± 0.09 | 986.7 ± 261.02 | 45.91 ± 4.70,** % | 9.28 ± 2.43,*** % | 13.79 ± 2.05,** % | 14.53 ± 3.53,** %
N14: SEQ ID NO: 1 with deletion of positions 1-5 and addition of one amino acid at the carboxyl terminal (LAKENVTQDAEDNC) | 15.27 ± 8.75,*** % | 1.09 ± 0.29 | 913.68 ± 219.62 | 48.61 ± 4.63,** % | 7.58 ± 2.34,*** % | 7.05 ± 1.40,*** % | 11.22 ± 2.66,*** %
N15: SEQ ID NO: 1 with substitution N18R and addition of one amino acid to the carboxyl terminal (YRVRFLAKENVTQDAEDRC) | 14.98 ± 9.09,** % | 0.63 ± 0.13 | 793.32 ± 173.3 | 53.20 ± 5.58,* % | 8.95 ± 2.93,*** % | 11.57 ± 2.10,** % | 40.62 ± 3.53,* %
N16: SEQ ID NO: 1 with substitution A7R and addition of one amino acid at the carboxyl terminus (YRVRFLRKENVTQDAEDNC) | 30.57 ± 5.41,** % | 0.83 ± 0.27 | 897.27 ± 176.16 | 43.25 ± 5.18,** % | 8.11 ± 1.71,*** % | 9.81 ± 3.29,** % | 18.28 ± 3.45,** %
N17: SEQ ID NO: 1 with addition of two amino acids to the carboxyl terminal (YRVRFLAKENVTQDAEDNCT) | 18.31 ± 9.26,** % | 0.76 ± 0.26 | 893.18 ± 234.75 | 43.42 ± 3.16,** % | 4.51 ± 1.96,*** % | 11.47 ± 4.24,** % | 14.35 ± 2.52,** %
N18: SEQ ID NO: 1 with addition of one amino acid at the amino terminal and one at the carboxyl terminal (FYRVRFLAKENVTQDAEDNC) | 55.71 ± 4.05,* % | 0.75 ± 0.26 | 969.37 ± 243.04 | 48.73 ± 3.52,** % | 9.97 ± 2.44,*** % | 10.40 ± 2.72,** % | 12.67 ± 2.33,*** %
N19: SEQ ID NO: 1 with deletion of positions 1-5 and 15-18 and addition of two amino acids at the carboxyl terminal (LAKENVTQDRC) | 53.74 ± 5.46,* % | 0.81 ± 0.29 | 963.18 ± 185.31 | 12.10 ± 6.15,*** % | 25.49 ± 2.69,* % | 11.84 ± 3.95,** % | 8.14 ± 2.21,*** %
N20: SEQ ID NO: 1 with addition of one amino acid at the amino terminal and deletion of position 18 (RYRVRFLAKENVTQDAED) | 55.77 ± 5.06,* % | 0.89 ± 0.22 | 1037.56 ± 256.6 | 14.22 ± 6.12,*** % | 7.67 ± 1.35,** % | 13.73 ± 4.97,** % | 6.92 ± 3.28,*** %
N21: SEQ ID NO: 1 with deletion of positions 1-5 and 15-18 and addition of one amino acid at the amino terminal (SLAKENVTQD) | 31.06 ± 4.94,** % | 0.9 ± 0.28 | 967.35 ± 247.89 | 15.00 ± 7.29,*** % | 13.59 ± 2.07,** % | 10.43 ± 2.18,** % | 9.87 ± 2.84,*** %
N22: SEQ ID NO: 1 with substitution A7R, deletion of three amino acids at the amino terminal and of positions 15-18 (RFLRKENVTQD) | 33.59 ± 5.62,** % | 0.83 ± 0.33 | 835.73 ± 184.67 | 18.61 ± 8.35,*** % | 8.54 ± 1.57,** % | 8.79 ± 3.01,** % | 10.02 ± 2.35,*** %
N51: SEQ ID NO: 1 with A15R, one amino acid added at each terminal, PEG modification at the amino terminal ({PEG}-FYRVRFLAKENVTQDREDNC; reading uncertain) | 53.59 ± 5.62,* % |  |  | 28.61 ± 5.89,** % | 10.6 ± 2.33,*** % | 8.56 ± 4.18,** % | 37.96 ± 3.60,* %
N52: SEQ ID NO: 1 with N18R, addition of two amino acids and PEG modification at the carboxyl terminal (YRVRFLAKENVTQDAEDRCT-{PEG}; reading uncertain) | 56.03 ± 4.21,* % |  |  | 15.39 ± 7.19,*** % | 13.87 ± 3.13,*** % | 7.23 ± 2.41,** % | 9.57 ± 1.61,*** %
N53: SEQ ID NO: 1 with A15R, one amino acid added at each terminal, PEG modification at the carboxyl terminal (FYRVRFLAKENVTQDREDNC-{PEG}; reading uncertain) | 58.05 ± 3.60,* % |  |  | 35.85 ± 4.32,** % | 8.02 ± 3.35,*** % | 9.45 ± 2.39,** % | 8.83 ± 1.75,*** %
N54: SEQ ID NO: 1 with A7R, addition of two amino acids and PEG modification at the carboxyl terminal (YRVRFLRKENVTQDAEDNTC-{PEG}; reading uncertain) | 54.66 ± 4.73,* % |  |  | 46.62 ± 3.73,** % | 3.19 ± 1.08,*** % | 16.52 ± 2.93,* % | 6.91 ± 3.44,*** %
